Experimental findings from patent US5843940A, “Benzothiophene compounds, compositions, and method” (Eli Lilly and Company, priority 1997, dated 1998) are described below.

As usually defined, the IC50 is the midpoint of a concentration-inhibition curve. A higher IC50 goes with weaker potency in that assay.

Molecules are shown by their SMILES. Counter-ions that a name gives are not always drawn.

The test system of assay [1] is uterus of ovariectomized rats. Briefly: Uterine weight in ovariectomized rats. The settings on record: for Uterine Weight % Inc (increase versus the ovariectomized controls): daily for 4 days, 5 to 6 rats, * p < .05. The class given is in vivo, female Sprague Dawley rats. From the text:
(§1) Seventy-five day old female Sprague Dawley rats (weight range of 200 to 225 g) were obtained from Charles River Laboratories (Portage, Mich.). The animals were either bilaterally ovariectomized (OVX) or exposed to a Sham surgical procedure at Charles River Laboratories, and then shipped after one week. Upon arrival, they were housed in metal hanging cages in groups of 3 or 4 per cage and had ad libitum access to food (calcium content approximately 0.5%) and water for one week. Room temperature was maintained at 22.2°±1.7° C. with a minimum relative humidity of 40%. The photoperiod in the room was 12 hours light and 12 hours dark.
(§2) Dosing Regimen Tissue Collection. After a one week acclimation period (therefore, two weeks post-OVX) daily dosing with test compound was initiated. 17α-ethynyl estradiol or the test compound were given orally, unless otherwise stated, as a suspension in 1% carboxymethylcellulose or dissolved in 20% cyclodextrin. Animals were dosed daily for 4 days. Following the dosing regimen, animals were weighed and anesthetized with a ketamine:xylazine (2:1, V:V) mixture and a blood sample was collected by cardiac puncture. The animals were then sacrificed by asphyxiation with CO2, the uterus was removed through a midline incision, and a wet uterine weight was determined.
(§3) The data presented in Table 1 below reflects the response of 5 to 6 rats per treatment.

Assay [2] deals with Uterine Eosinophil Peroxidase. Briefly: Uterine Eosinophil Peroxidase (EPO) Assay. The class given is in vivo, female Sprague Dawley rats. To be noted: for Uterine Eosinophil (Vmax), Eosinophil peroxidase Vmax: daily for 4 days, 5 to 6 rats, * p < .05.
Text: as §1, §2
Uterine Eosinophil Peroxidase (EPO) Assay. Uteri were kept at 4° C. until time of enzymatic analysis. The uteri were then homogenized in 50 volumes of 50 mM Tris buffer (pH-8.0) containing 0.005% Triton X-100. Upon addition of 0.01% hydrogen peroxide and 10 mM O-phenylenediamine (final concentrations) in Tris buffer, increase in absorbance was monitored for one minute at 450 nm. The presence of eosonophils in the uterus is an indication of estrogenic activity of a compound. The maximal velocity of a 15 second interval was determined over the initial, linear portion of the reaction curve.
as §3

The subject of assay [3] is Serum cholesterol. Description: Serum cholesterol analysis in ovariectomized rats. The settings on record: for Serum Cholest. % Dec. (decrease versus ovariectomized controls): daily for 4 days, 5 to 6 rats, * p < .05. The format is in vivo, female Sprague Dawley rats.
Text: as §1, §2
Cholesterol Analysis. Blood samples were allowed to clot at room temperature for 2 hours, and serum was obtained following centrifugation for 10 minutes at 3000 rpm. Serum cholesterol was determined using a Boehringer Mannheim Diagnostics high performance cholesterol assay. Briefly the cholesterol was oxidized to cholest-4-en-3-one and hydrogen peroxide. The hydrogen peroxide was then reacted with phenol and 4-aminophenazone in the presence of peroxidase to produce a p-quinone imine dye, which was read spectrophotemetrically at 500 nm. Cholesterol concentration was then calculated against a standard curve.
as §3

In assay [4] the test system is femur density of ovariectomized rats. Description: Osteoporosis test, bone density in ovariectomized rats. The class given is in vivo. To be noted: orally administered, 35 days, in 20% hydroxypropyl β-cyclodextrin. Here is the method:
Following the General Preparation Procedure, infra, the rats are treated daily for 35 days (6 rats per treatment group) and sacrificed by carbon dioxide asphyxiation on the 36th day. The 35 day time period is sufficient to allow maximal reduction in bone density, measured as described herein. At the time of sacrifice, the uteri are removed, dissected free of extraneous tissue, and the fluid contents are expelled before determination of wet weight in order to confirm estrogen deficiency associated with complete ovariectomy. […] The uteri are then placed in 10% neutral buffered formalin to allow for subsequent histological analysis. The right femurs are excised and digitilized x-rays generated and analyzed by an image analysis program (NIH image) at the distal metaphysis. The proximal aspect of the tibiae from these animals are also scanned by quantitative computed tomography. In accordance with the above procedures, compounds of the instant invention and ethynyl estradiol (EE2) in 20% hydroxypropyl β-cyclodextrin are orally administered to test animals. Distal femur metaphysis and proximal tibiae data are compared to intact and ovariectomized test animals. Results are reported as percent protection relative to ovariectomy.

For assay [5], the system named is MCF-7 breast adenocarcinoma cells. Briefly: MCF-7 Proliferation Assay (estrogen dependent breast cancer). The format is cell-based. To be noted: Homo sapiens, MCF7, versus control (DMSO), tritiated thymidine. Here is the method:
MCF-7 breast adenocarcinoma cells (ATCC HTB 22) are maintained in MEM (minimal essential medium, phenol-red free, Sigma St.Louis Mo.) supplimented with 10% fetal bovine serum (FBS) (v/v), L-glutamine (2 mM), sodium pyruvate (1 mM), HEPES (10 mM), non-essential amino acids and bovine insulin (1 ug/mL). Ten days prior to the assay, the MCF-7 cells are switched to maintenance medium supplemented with 10% dextrancoated charcoal stripped fetal bovine serum (DCC-FBS) assay medium in place of the 10% FBS to deplete internal stores of estrogen. MCF-7 cells are removed from the maintenance flasks using a cell dissociating medium (Ca/Mg free HBSS (phenol-red free) supplemented with 10 mM HEPES and 2 mM EDTA. Cells are washed twice with the assay medium and adjusted to 80,000 cells/mL. Approximately […] (8,000 cells) are added to a flat-bottomed microculture well (Costar 3596) and incubated at […] in a 5% CO2 humidified incubator for 48 hours to allow cell adherence and equilibrium after transfer. Serial dilutions of the compounds of formula I or DMSO as a diluent control are prepared in assay medium and […] to triplicate microcultures followed by […] for a final volume of […]. After an additional 48 hours of incubation, the microcultures are pulsed with tritiated thymidine ([…]) for 4 hours. Culture are terminated by freezing at -70° C. for 24 hours followed by thawing and harvesting of microcultures using a Skatron Semiautomatic Cell Harvester. Samples are counted by liquid scintillation. Fifty percent inhibitory concentration of the test drugs (IC50) are determined versus the control (DMSO).

In the case of `Oc1ccc(-c2sc3cc(O)ccc3c2-c2ccc(OCCN3CCCCC3)cc2)cc1` [Compound A, reference compound], the entries for the “Uterine Weight % Inc (increase versus the ovariectomized controls)” value in assay [1] (0.1 mg/kg PO), in assay [1] (1.0 mg/kg PO) and in assay [1] (10.0 mg/kg PO) were 24.6%, 64.8% and 41.7%, respectively. For the same compound, the “Uterine Eosinophil (Vmax), Eosinophil peroxidase Vmax” value (“Uterine Eosinophil (Vmax)” below) was 21.0 in assay [2] (0.1 mg/kg PO), 49.9 in assay [2] (1.0 mg/kg PO) and 55.9 in assay [2] (10.0 mg/kg PO). In addition, the “Serum Cholest. % Dec. (decrease versus ovariectomized controls)” value in assay [3] (0.1 mg/kg PO) is 45.4%; in assay [3] (1.0 mg/kg PO) it was 68.8%; in assay [3] (10.0 mg/kg PO), 65.3%.

As to `C#C[C@]1(O)CC[C@H]2[C@@H]3CCc4cc(O)ccc4[C@H]3CC[C@@]21C` [EE2, 17α-ethynyl estradiol, reference compound], in assay [1] (0.1 mg/kg PO), the “Uterine Weight % Inc (increase versus the ovariectomized controls)” value is reported as 118.6%. In addition, the “uterine weight (in words)” value in assay [1] (EE2 orally at 0.1 mg/kg/day, versus ovariectomized test animals) is given as “substantially greater than the uterine weight of ovariectomized test animals”. In addition, the “Uterine Eosinophil (Vmax)” value in assay [2] (0.1 mg/kg PO) is listed as 234.2. In addition, in assay [2] (stromal layer of ovariectomized rats), the “eosinophil infiltration into the uterus (in words)” value is on record as “substantial, expected increase in eosinophil infiltration”. The “Serum Cholest. % Dec. (decrease versus ovariectomized controls)” value in assay [3] (0.1 mg/kg PO) turned out to be 89.3%. In addition, the “serum cholesterol (in words)” value in assay [3] (EE2 orally at 0.1 mg/kg/day) is reported as “caused a decrease in serum cholesterol”. Also, the “loss of femur density after ovariectomy” value in assay [4] is recorded as “prevents this loss”.

As to `COc1ccc(-c2sc3cc(OC)ccc3c2-c2cccc(OCCN3CCCCC3)c2)cc1.Cl` [Example 1, 2-(4-Methoxyphenyl)-3-[3-[2-(1-piperidinyl)ethoxy]phenyl]-6-methoxybenzo[b]thiophene hydrochloride], the “Uterine Weight % Inc (increase versus the ovariectomized controls)” value is 24% in assay [1] (0.1 mg/kg PO), 37.2% in assay [1] (1.0 mg/kg PO) and 68.2% in assay [1] (10.0 mg/kg PO). Besides, the “Uterine Eosinophil (Vmax)” value in assay [2] (0.1 mg/kg PO) is 7.5; in assay [2] (1.0 mg/kg PO) it was 22.2; in assay [2] (10.0 mg/kg PO) it was 103.5. The “Serum Cholest. % Dec. (decrease versus ovariectomized controls)” value stood at 25.8% in assay [3] (0.1 mg/kg PO), 56.1% in assay [3] (1.0 mg/kg PO) and 71.1% in assay [3] (10.0 mg/kg PO).

Regarding `COc1ccc(-c2sc3cc(OC)ccc3c2-c2cccc(OCCCN3CCCCC3)c2)cc1.Cl` [Example 2, 2-(4-Methoxyphenyl)-3-[3-[3-(1-piperidinyl)propoxy]phenyl]-6-methoxybenzo[b]thiophene hydrochloride], the “Uterine Weight % Inc (increase versus the ovariectomized controls)” value in assay [1] (0.1 mg/kg PO) worked out at 20.2%; in assay [1] (1.0 mg/kg PO) it was 35.7%; in assay [1] (10.0 mg/kg PO), 39.1%. In addition, the “Uterine Eosinophil (Vmax)” value amounted to 24.0 in assay [2] (0.1 mg/kg PO), 32.4 in assay [2] (1.0 mg/kg PO) and 32.1 in assay [2] (10.0 mg/kg PO). For the same compound, the “Serum Cholest. % Dec. (decrease versus ovariectomized controls)” value in assay [3] (0.1 mg/kg PO) turned out to be 59.1%; in assay [3] (1.0 mg/kg PO), 76.5%; in assay [3] (10.0 mg/kg PO) it was 69.4%.

For `COc1ccc(-c2sc3cc(OC)ccc3c2-c2cccc(OCCCCN3CCCCC3)c2)cc1.Cl` [Example 3, 2-(4-Methoxyphenyl)-3-[3-[4-(1-piperidinyl)butoxy]phenyl]-6-methoxybenzo[b]thiophene hydrochloride], the figures for the “Uterine Weight % Inc (increase versus the ovariectomized controls)” value in assay [1] (0.1 mg/kg PO), in assay [1] (1.0 mg/kg PO) and in assay [1] (10.0 mg/kg PO) were 23.9%, 62.1% and 65.0%, respectively. Also, the results for the “Uterine Eosinophil (Vmax)” value in assay [2] (0.1 mg/kg PO), in assay [2] (1.0 mg/kg PO) and in assay [2] (10.0 mg/kg PO) were 4.8, 43.5 and -91.2, respectively. For the same compound, the entries for the “Serum Cholest. % Dec. (decrease versus ovariectomized controls)” value in assay [3] (0.1 mg/kg PO), in assay [3] (1.0 mg/kg PO) and in assay [3] (10.0 mg/kg PO) were 35.5%, 64.4% and 78.0%, respectively.

In the case of `Oc1ccc(-c2sc3cc(O)ccc3c2-c2cccc(OCCN3CCCCC3)c2)cc1` [Example 4, 2-(4--Hydroxyphenyl)-3-[3-[2-(1-piperidinyl)ethoxy]phenyl]-6-hydroxybenzo[b]thiophene hydrochloride], the “Uterine Weight % Inc (increase versus the ovariectomized controls)” value came out at 9.1% in assay [1] (0.1 mg/kg PO), 5.6% in assay [1] (1.0 mg/kg PO) and 78.7% in assay [1] (10.0 mg/kg PO). The “Uterine Eosinophil (Vmax)” value in assay [2] (0.1 mg/kg PO) is listed as 4.8; in assay [2] (1.0 mg/kg PO), 4.8; in assay [2] (10.0 mg/kg PO), 103.8. For the same compound, the results for the “Serum Cholest. % Dec. (decrease versus ovariectomized controls)” value in assay [3] (0.1 mg/kg PO), in assay [3] (1.0 mg/kg PO) and in assay [3] (10.0 mg/kg PO) were 33.3%, 57.2% and 81.0%, respectively. In assay [5], this compound came in with an IC50 of 8 nM.

As for `Oc1ccc(-c2sc3cc(O)ccc3c2-c2cccc(OCCCN3CCCCC3)c2)cc1` [Example 5], in assay [5], it took 0.2 nM to reach half-maximal inhibition (IC50).

In the case of `Oc1ccc(-c2sc3cc(O)ccc3c2-c2cccc(OCCCCN3CCCCC3)c2)cc1` [Example 6, 2-(4--Hydroxyphenyl)-3-[3-(1-piperidinyl)butoxy]phenyl]-6-hydroxybenzo[b]thiophene hydrochloride], the IC50 in assay [5] was found to be 2 nM.
